Here are results for five molecules from EP0302626A2, “Insecticidal compounds” (IMPERIAL CHEMICAL INDUSTRIES PLC, priority 1987, dated 1989).

Holding throughout (type): in vivo
One assay deals with Myzus persicae (aphids). The experiment in a line: insecticidal mortality test, contact, Chinese Cabbage leaf. As to conditions: 72 h, read-out: grading of mortality, MP. In a few lines: (§1)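 Mortality grades: A 80–100%, B 50–79%, C <50%, scored usually 1 to 3 days post-treatment. Test liquids held 500, 250 or 100 ppm by weight, prepared from acetone solution diluted into water with 0.01% wetting agent.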

For assay [1], the system named is Tetranychus urticae (spider mites - adult). The assay is described as follows: insecticidal mortality test, contact, French bean leaf. As to conditions: Tetranychus urticae, 72 h; for mortality at 100 ppm: read-out: grading of mortality, Tua, 100 ppm, 3 days. An outline of the steps:
as §1

The test system of assay [2] is Diabrotica balteata (rootworm larvae). The experiment in a line: insecticidal mortality test, residual, filter paper/maize seed. As to conditions: 72 h, read-out: grading of mortality, DB. In a few lines: as §1
The test system of assay [3] is Blattella germanica (adult males). The assay is described as follows: Blattella germanica knockdown test. Conditions: tests 1 and 2 are repeats; for mortality at 250 ppm / pest or weed control at 250 ppm: Blattella germanica; for mortality at 250 ppm: 48 h, 250 ppm spray, insects held at 25°C and 65% relative humidity for 48 hours, read-out: % MORTALITY 48 hrs; for pest or weed control at 250 ppm: topical, 10 min, Tetramethrin: mean of 27 observations, read-out: % KNOCKDOWN OBSERVED 10 min. The method, then: The test compound was dissolved in acetone (2 cm³) and the solution diluted to a concentration of 250 ppm with kerosene. 1 cm³ Of this preparation was sprayed onto 10 Blattella germanica (adult males) held in a netted plastic pot in a Burkhard potter Tower. Assessment of knockdown was performed at intervals of 5 minutes up to a total of 20 minutes. On removal from the Burkhard Potter Tower, the insects were held at 25°C and 65% relative humidity for 48 hours, and an assessment of mortality performed. Each test was repeated.
In some tests, additional knockdown assessment was performed at intervals of 1, 2, 3 and 4 minutes, and KT₅₀ and KT₉₀ values determined (the time taken, in minutes, to knockdown 50% and 90% respectively of test insects).

For assay [4], the system named is Spodoptera exigua (lesser army worm - larvae). The experiment in a line: insecticidal mortality test, residual, cotton leaf. As to conditions: 72 h, read-out: grading of mortality, SP. In a few lines:
as §1

Assay [5] deals with Heliothis virescens (tobacco budworm - larvae). The assay is described as follows: insecticidal mortality test, residual, cotton leaf. As to conditions: 72 h, read-out: grading of mortality, HV. In a few lines:
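Mortality, assessed 1–3 days post-treatment, is graded A 80-100%, B 50-79%, C <50%. Treatment applied to pests, their host plant or food medium, or both. Preparations at 500, 250 or 100 ppm made from acetone solutions diluted with water containing 0.01% wetting agent.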

For the next assay, the system named is Nilaparvata lugens. The experiment in a line: insecticidal mortality test, Nephotettix cincticeps replaced by Nilaparvata lugens. Conditions: 72 h, read-out: grading of mortality, NC with Nilaparvata lugens. The method, then:
The activity of the Product was determined using a variety of insect pests. The Product was used in the form of liquid preparations containing 500, 250 or 100 parts per million (ppm) by weight of the Product. The preparations were made by dissolving the Product in acetone and diluting the solutions with water containing 0.01% by weight of a wetting agent sold under the trade name "LlSSAPOL" NX until the liquid preparations contained the required concentration of the Product. "Lissapol" is a Registered Trade Mark.
The test procedure adopted with regard to each pest was basically the same and comprised supporting a number of the pests on a medium which was usually a host plant or a foodstuff on which the pests feed, and treating either or both the pests and the medium with the preparations. The mortality of the pests was then assessed at periods usually varying from one to three days after the treatment.
The results of the tests are given in Table III for each of the Products, at the rate in parts per million given in the second column as a grading of mortality designated as A, B or C wherein A indicates 80-100% mortality, B indicates 50-79% mortality and C indicates less than 50% mortality.
In Table 111 the pest organism used is designated by a letter code and the pests species, the support medium or food, and the type and duration of test is given in Table II.

In assay [6] the test system is Musca domestica (adult females). The assay is described as follows: Musca domestica knockdown test. Conditions: 1 cm3 of 30 ppm solution in acetone, Kearns and March chamber, 20 adult females, observed over 10 minutes; average of 2 replicates (* single replicate, ** average of 7 tests). On the procedure: 1 cm³ Of a 30 ppm solution of the test chemical in acetone was sprayed into a Kearns and March chamber containing 20 Musca domestica (adult females). Knockdown was observed over a period of 10 minutes and KT₅₀ and KT₉₀ values (the time taken for 50% and 90% of the insects to be knocked down) were calculated from the observations. The results given in Table V represent average KT values of 2 replicates except where otherwise stated.

The test system of assay [7] is Musca domestica (houseflies - adults). The assay is described as follows: insecticidal mortality test, contact, cotton wool/sugar. Conditions: 24 h, read-out: grading of mortality, MD. An outline of the steps:
as §1

Assay [8] deals with Blattella germanica (cockroach nymphs). The assay is described as follows: insecticidal mortality test, residual, plastic pot. As to conditions: 72 h, read-out: grading of mortality, BG. In a few lines: as §1
For assay [9], the system named is Nephotettix cincticeps (green leaf hopper - nymphs). The assay is described as follows: insecticidal mortality test, contact, rice plant. As to conditions: 72 h, 100 ppm, contact, rice plant, 3 days, read-out: grading of mortality, NC. In a few lines: as §1
The mark [10] stands for this setting: 250 ppm in kerosene, 1 cm3 sprayed onto 10 adult males.
Setting [11] is: 100 ppm, residual, cotton leaf, 3 days.
Where [12] appears, read: Nilaparvata lugens, in Oryza sativa.

Like-named read-outs stand apart in the source and are kept apart here.

Usually mortality stands for the share of the test organisms that died. With `C#Cc1c(F)c(F)c(COC(=O)C2C(C=C(Cl)C(F)(F)F)C2(C)C)c(F)c1F` (racemic) [Product XVI, 4-Ethynyl-2,3,5,6-tetrafluorobenzyl (1RS, cis)-3-(Z-2-chloro-3,3,3-trifluoroprop-1-en-1-yl)-2,2-dimethylcyclopropanecarboxylate], the mortality at 100 ppm lay in the range of 80 to 100% in the assay on Myzus persicae (aphids); 50 to 79% in assay [1]; 80 to 100% in [2]; 80 to 100% in [4]; 80 to 100% in [5] (setting [11]); 80 to 100% with Nilaparvata lugens (setting [12]). Besides, the mortality at 100 ppm in assay [7] and in [8] was 80 to 100% in each case. The mortality at 250 ppm in assay [3] was found to be 100%. Besides, in assay [3] (setting [10]), the pest or weed control at 250 ppm is 100%. In [6], the KT₅₀ is reported as 4.6* mins. Further, the KT₉₀ in assay [6] was 7.0* mins.
Take `C#Cc1c(F)c(F)c(COC(=O)C2C(C)(C)C2(C)C)c(F)c1F` [Product XVII, 4-Ethynyl-2,3,5,6-tetrafluorobenzyl-2,2,3,3-tetramethylcyclopropanecarboxylate]: the mortality at 500 ppm in the assay on Myzus persicae (aphids) (500 ppm, contact, Chinese Cabbage leaf, 3 days) was less than 50%; in assay [1] (500 ppm, 3 days, read-out: grading of mortality, Tua), 80 to 100%; in [2] (500 ppm, residual, filter paper/maize seed, 3 days), less than 50%; in assay [4] (500 ppm, residual, cotton leaf, 3 days) it was 80 to 100%; in assay [5] it was 80 to 100%; in the assay with Nilaparvata lugens (500 ppm, footnote *: Nephotettix cincticeps replaced by Nilaparvata lugens, otherwise as NC test (contact, rice plant, 3 days)), 80 to 100%. For the same molecule, the mortality at 500 ppm in [7] (500 ppm, contact, cotton wool/sugar, 1 day) lay in the range of 80 to 100%; in assay [8] (500 ppm, residual, plastic pot, 3 days), 80 to 100%. Besides, the KT₅₀ in [6] was 4.1 min. This molecule also came in with a KT₉₀ in assay [6] of 7.5 min.
Take `CC(C)=NNc1c(F)c(F)c(COC(=O)[C@@H]2[C@H](C=C(Cl)Cl)C2(C)C)c(F)c1F` (relative stereo) [Product XV, 4-(prop-2-ylidenehydrazino)-2,3,5,6-tetrafluorobenzyl (1RS, cis)-3-(2,2-dichloroethenyl)-2,2-dimethyl-cyclopropanecarboxylate]: the mortality at 500 ppm (in the assay with Myzus persicae (aphids); in assay [2]; in [5]; in the assay on Nilaparvata lugens (setting [12]); in assay [7]; in [8]) was 80 to 100% throughout.
On to `CC(=O)OCc1c(F)c(F)c(COC(=O)C2C(C=C(Cl)C(F)(F)F)C2(C)C)c(F)c1F` (racemic) [Product VI, 4-(Acetoxymethyl)-2,3,5,6-tetrafluorobenzyl (1RS,cis)-3-(Z-2-chloro-3,3,3-trifluoroprop-1-en-1-yl)-2,2-dimethylcyclopropanecarboxylate], for which the mortality at 100 ppm in the assay on Myzus persicae (aphids) was in the range of 80 to 100%; in [1], 50 to 79%; in assay [2], 80 to 100%; in assay [4] it was 80 to 100%; in [5] (setting [11]), 80 to 100%; in [7], 80 to 100%. Moreover, the mortality at 100 ppm in assay [8] and in assay [9] was 80 to 100% each time. For the same molecule, the “% KNOCKDOWN OBSERVED 15 min” value in assay [3] (250 ppm in kerosene, 1 cm3 sprayed onto 10 adult males, 15 min) is reported as 70%. In addition, in assay [3] (250 ppm in kerosene, 1 cm3 sprayed onto 10 adult males, 20 min), the “% KNOCKDOWN OBSERVED 20 min” value is reported as 100%. In addition, the mortality at 250 ppm in assay [3] came out at 100%. Further, in [3] (setting [10]), the pest or weed control at 250 ppm amounted to 30%. This molecule gave a KT₅₀ in assay [6] of 7.0 min. Besides, the KT₉₀ in assay [6] is 7.7* mins.
For `CC(C)=NNc1c(F)c(F)c(COC(=O)[C@@H]2[C@H](/C=C(\Cl)C(F)(F)F)C2(C)C)c(F)c1F` (relative stereo) [Product XIII, 4-(prop-2-ylidenehydrazino)-2,3,5,6-tetrafluorobenzyl (1RS, cis)-3-(Z-2-chloro-3,3,3-trifluoroprop-1-en-1-yl)-2,2-dimethylcyclopropanecarboxylate], the mortality at 100 ppm in the assay on Myzus persicae (aphids) is 50 to 79%; in assay [1], less than 50%; in [2], 80 to 100%; in [5], 80 to 100%; in the assay with Nilaparvata lugens (setting [12]) it was 80 to 100%; in [7], 80 to 100%. In addition, the mortality at 100 ppm in assay [8] was 80 to 100%.
